In patent publication US20250338846A1, “COMPOSITIONS HAVING PESTICIDAL UTILITY AND PROCESSES RELATED THERETO” (CORTEVA AGRISCIENCE, LLC, priority 2022, published 2025):
Read-outs that look alike come from different tables or passages of the source.

Columns and labels:
[1] = system: Neotropical Brown Stink Bug (Euschistus heros, EUSCHE); test: whole plant or invertebrate; format: in vivo
Procedure: X=No. of live nymphs on solvent check and Y=No. of live nymphs on treated bean segments. In Table B4 the “Expected % Control” was calculated using the method described in Colby S. R., Weeds, 1967, 15, 20-22. Bioassay 5: Neotropical Brown Stink Bug (Euschistus heros, EUSCHE) (“BSB”).
Stock solutions were prepared with Formula One as well as for each of the active ingredients individually. Test solutions were prepared from the stock solutions. Test solutions were prepared containing Formula One, the individual active ingredients, and mixtures of Formula One with each of the active ingredients. The test solution for Formula One was prepared by adding 500 μL of the stock solution to a 25 mL glass vial, then adding 500 μL of acetone, followed by the addition of 9 mL water with 0.025% Tween®) 20 to create a 0.04% (w/v) solution. The individual active ingredients were prepared by adding 500 μL of stock solution to a 25 mL glass vial, then adding 500 μL of acetone, followed by the addition of 9 mL water with 0.025% Tween®) 20 to create a 0.005% (w/v) solution. The test solutions containing mixtures of Formula One and the individual active ingredients were prepared by adding 500 μL of the active ingredient stock solution to a 25 mL glass vial, followed by 500 μL of the Formula One stock solution, then by the addition of 9 mL water with 0.025% Tween®) 20 to create a test solution containing 0.04% (w/v) Formula One and 0.005% (w/v) of the active ingredient. Each test solution was serially diluted to create desired doses of test solutions (0.01% (w/v), 0.0025% (w/v), 0.000625% (w/v), 0.000156% (w/v), and 0.000039% (w/v)). In test solutions containing mixtures of Formula One and the active ingredients, the active ingredients were diluted as described above, but the Concentration of Formula One was held constant (0.04% (w/v)).
The test solutions that were tested against BSB were similar to those described above for WTPB. Fresh green beans were cut into segments approximately 1.5 inches long. Four bean segments were added to each test solution and soaked for approximately 15 minutes. After soaking, a single bean fragment was removed and placed into a single well of a 32-well rearing tray (Frontier Agricultural Sciences™), on top of a round filter paper disc. A reference treatment (solvent check) was treated with the diluent only. Each treatment was replicated four times and the test treatments were held at approximately 26° C. and ambient relative humidity (RH) prior to grading. Bean segments were allowed to air dry for ˜30 minutes. Three BSB nymphs were added to and contained in each well with a clear perforated adhesive lid. The total number of living BSB nymphs was recorded 3 days after application. Scoring was based off the total number of living nymphs out of all four replicates. Percent control was measured using Abbott's correction formula (W. S. Abbott, J. Econ. Entomol. 18 (1925), pp. 265-267) as follows:
where X=No. of live nymphs on solvent check and Y=No. of live nymphs on treated bean segments. In Table B5 the “Expected % Control” was calculated using the method described in Colby S. R., Weeds, 1967, 15, 20-22. Bioassay 6: Beet Armyworm (Spodoptera exigua, LAPHEG) (BAW), and Diamondback Moth (Plutella xylostella, PLUTMA) (DBM).

[2] = system: Western Flower Thrips (Frankliniella occidentalis, FRANOC); test: Bioassay 3: Western Flower Thrips, cotton leaf disc dip, live WFT counted 3 days after treatment; format: in vivo; settings: for pest or weed control at 7.8e-05 % strength: read-out: Average % Control AI
Summary of the method: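 Cotton leaf discs were dipped in acetone/water solutions with 0.025% Tween 20, at 0.005% to 0.0000195% (w/v) for single actives; mixtures held Formula One constant at 0.04% (w/v). Discs were air dried, infested with 5 nymphs aged 9-10 days, and held at approximately 26° C. Live thrips were counted at 3 days, with Abbott-corrected control against solvent checks.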

[3] = Euschistus heros, 72 h, AI alone 0.000156 % w/v, read-out: Average % Control AI
[4] = Euschistus heros, 72 h, AI alone 0.000625 % w/v
[5] = Frankliniella occidentalis, foliar, 72 h, AI alone 0.0003125 % w/v

## CN1COCN(Cc2cnc(Cl)s2)/C1=N\[N+](=O)[O-] [Thiamethoxam]
[1]; [3]
  pest or weed control at 0.000156 % strength: 17%
[2]; Frankliniella occidentalis, foliar, 72 h, AI alone 0.000078 % w/v
  pest or weed control at 7.8e-05 % strength: 7%

## Abamectin
[1]; AI alone 0.000625 % w/v
  Average % Control AI: 17%

## Cc1c(COC(=O)[C@@H]2[C@H](/C=C(\Cl)C(F)(F)F)C2(C)C)cccc1-c1ccccc1 (racemic) [Bifenthrin]
[1]; [3]
  pest or weed control at 0.000156 % strength: 30%

## CC[S+]([O-])c1c(C#N)nn(-c2c(Cl)cc(C(F)(F)F)cc2Cl)c1N (stereo not drawn) [Ethiprole]
[1]; Euschistus heros, 72 h, AI alone 0.0000391 % w/v
  pest or weed control at 3.91e-05 % strength: 0%
[2]; Frankliniella occidentalis, foliar, 72 h, AI alone 0.005 % w/v
  pest or weed control at 0.005 % strength: 0%

## Emamectin Benzoate
[1]; AI alone 0.000156 % w/v
  Average % Control AI: 24%
[2]; AI alone 0.005 % w/v
  Average % Control AI: 38%

## COP(=O)(NC(C)=O)SC (stereo not drawn) [Acephate]
[1]; Euschistus heros, 72 h, read-out: Average % Control AI
  pest or weed control at 0.0025 % strength: 0%
[2]; Frankliniella occidentalis, foliar, 72 h
  pest or weed control at 7.8e-05 % strength: 5%

## CON=CNC(=O)c1ccc(C2=NOC(c3cc(Cl)cc(Cl)c3)(C(F)(F)F)C2)cc1C (stereo not drawn) [Fluxametamide]
[1]; AI alone 0.000625 % w/v
  Average % Control AI: 17%
[2]; AI alone 0.0003125 % w/v
  Average % Control AI: 67%

## CC1(C)[C@H](C(=O)O[C@H](C#N)c2cccc(Oc3ccccc3)c2)[C@@H]1/C=C(\Cl)C(F)(F)F (racemic) [Lambda Cyhalothrin]
[1]; [4]
  pest or weed control at 0.000625 % strength: 8%
[2]; [5]
  pest or weed control at 0.0003125 % strength: 7%

## O=[N+]([O-])NC1=NCCN1Cc1ccc(Cl)nc1 [Imidacloprid]
[1]; [4]
  pest or weed control at 0.000625 % strength: 17%
[2]; [5]
  pest or weed control at 0.0003125 % strength: 0%

## C/C(=N\C#N)N(C)Cc1ccc(Cl)nc1 [Acetamiprid]
[2]; [5]
  pest or weed control at 0.0003125 % strength: 13%

## CCN(C(=O)CCS(C)(=O)=O)c1sc(-c2cccnc2)nc1Cl [Formula F1, N-(4-chloro-2-(pyridin-3-yl)thiazol-5-yl)-N-ethyl-3-(methylsulfonyl)propanamide]
[1]; F1 alone 0.04 % w/v
  Average % Control F1: 0%
